Experimental findings from publication PMC3855752, “Function and Distribution of 5-HT2 Receptors in the Honeybee (Apis mellifera)” (PLoS ONE, 2013) are described below.

In general, EC50 refers to the concentration that produces a half-maximal response.

Holding throughout (type): cell-based
Assay [1] deals with T1, Am5-HT2β (Apis mellifera, UniProt A0ACM8QMF9).
T1 construct: gene 5-HT2beta; cDNA from drone brain
Briefly: Fluo-4 intracellular Ca2+ assay in stable HEK […] cells.

Assay [2] addresses T2, Am5-HT2α (Apis mellifera, UniProt A0A8U1C256).
T2 construct: gene 5-HT2alpha; cDNA from drone brain
The description is as above.

Assay [3] deals with T2, Am5-HT2α. Nature of the assay: Fluo-4 intracellular Ca2+ assay in stable HEK […] cells, inhibition of serotonin response. The conditions noted are these: read-out: Am5-HT2αIC50.
The target of assay [4] is T1, Am5-HT2β. Described as above. The note with it: read-out: Am5-HT2βIC50.

Read-outs that look alike come from different tables or passages of the source.

T2 sequence (A0A8U1C256 entry or part of it): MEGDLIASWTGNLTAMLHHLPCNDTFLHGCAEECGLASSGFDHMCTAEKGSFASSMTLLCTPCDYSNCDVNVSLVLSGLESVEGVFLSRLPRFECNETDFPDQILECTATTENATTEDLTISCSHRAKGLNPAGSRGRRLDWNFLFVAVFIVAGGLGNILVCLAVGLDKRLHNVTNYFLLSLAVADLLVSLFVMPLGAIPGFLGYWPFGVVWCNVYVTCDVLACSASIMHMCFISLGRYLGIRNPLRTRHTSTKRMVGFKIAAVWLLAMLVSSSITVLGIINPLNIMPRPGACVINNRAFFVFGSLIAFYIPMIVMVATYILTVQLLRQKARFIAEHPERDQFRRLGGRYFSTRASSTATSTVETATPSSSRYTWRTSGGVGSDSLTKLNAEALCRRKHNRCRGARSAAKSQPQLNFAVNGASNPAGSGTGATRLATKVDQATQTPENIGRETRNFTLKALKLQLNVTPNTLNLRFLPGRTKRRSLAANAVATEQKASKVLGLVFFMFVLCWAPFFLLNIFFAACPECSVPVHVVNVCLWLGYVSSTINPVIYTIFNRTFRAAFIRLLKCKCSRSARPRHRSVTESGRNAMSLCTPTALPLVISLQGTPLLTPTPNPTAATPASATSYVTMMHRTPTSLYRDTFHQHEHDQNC
T1 sequence (A0ACM8QMF9 entry or part of it): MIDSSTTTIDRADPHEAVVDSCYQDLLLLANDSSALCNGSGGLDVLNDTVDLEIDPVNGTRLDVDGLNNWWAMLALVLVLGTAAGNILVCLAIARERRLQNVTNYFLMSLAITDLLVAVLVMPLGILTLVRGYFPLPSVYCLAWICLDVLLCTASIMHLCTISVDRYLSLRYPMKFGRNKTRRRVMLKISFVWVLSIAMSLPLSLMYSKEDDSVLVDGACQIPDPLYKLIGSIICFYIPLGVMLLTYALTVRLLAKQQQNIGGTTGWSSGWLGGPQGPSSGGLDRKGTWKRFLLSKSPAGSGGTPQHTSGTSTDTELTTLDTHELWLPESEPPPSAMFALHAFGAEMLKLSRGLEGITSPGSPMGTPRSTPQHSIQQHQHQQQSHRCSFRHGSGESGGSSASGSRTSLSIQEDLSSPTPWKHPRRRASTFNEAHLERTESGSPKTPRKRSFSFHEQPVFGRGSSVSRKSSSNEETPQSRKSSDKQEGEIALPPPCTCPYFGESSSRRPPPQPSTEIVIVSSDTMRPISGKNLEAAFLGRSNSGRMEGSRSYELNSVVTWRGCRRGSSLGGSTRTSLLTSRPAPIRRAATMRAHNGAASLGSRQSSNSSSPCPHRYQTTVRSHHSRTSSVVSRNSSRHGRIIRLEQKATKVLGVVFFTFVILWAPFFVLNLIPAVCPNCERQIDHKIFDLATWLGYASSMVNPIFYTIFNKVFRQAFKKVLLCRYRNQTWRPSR

Regarding `NCCc1c[nH]c2ccc(O)cc12` [serotonin], the EC50 was 32.5 nM at Am5-HT2β [1] (read-out: EC50) and 25.7 nM on Am5-HT2α [2] (read-out: EC50). As for `CC[C@@H](CO)NC(=O)[C@@H]1C=C2c3cccc4c3c(cn4C)C[C@H]2N(C)C1` [methysergide], the IC50 on Am5-HT2α [3] came out at 2200 nM. As for `COc1ccc2[nH]cc(CCN)c2c1` [5-methoxytryptamine], the EC50 amounted to 60.4 nM at Am5-HT2β [1] and 70 nM on Am5-HT2α [2]. For the molecule `CSc1ccc2c(c1)C(N1CCN(C)CC1)Cc1ccccc1S2` (stereo not shown) [methiothepin], the IC50 at Am5-HT2α [3] is 600 nM. The same measure, in the same setting: as for `Cn1ccc2cc(NC(=O)Nc3cccnc3)ccc21` [SB-200646], the figure is 100 nM. For `CCCN(CCC)C1CCc2cccc(O)c2C1` (stereo not shown) [8-OH-DPAT, 8-hydroxy-2-(di-n-propylamino)tetralin], the results for the EC50 on Am5-HT2β [1] (read-out: EC50) and on Am5-HT2α [2] (read-out: EC50) were 562 nM and 55900 nM, respectively.

`O=C(c1ccc(F)cc1)C1CCN(CCn2c(=O)[nH]c3ccccc3c2=O)CC1` [ketanserin]: on Am5-HT2β [4], the IC50 is 1500 nM.
